Reference: publication PMC7555970, “Design, Synthesis and Biological Evaluation of Biphenylglyoxamide-Based Small Molecular Antimicrobial Peptide Mimics as Antibacterial Agents” (International Journal of Molecular Sciences, 2020)
≈ marks a conversion by molar mass, not a printed value. Read-outs that look alike come from different tables or passages of the source.

Key:
[1] = tested on: MRC-5 normal human lung fibroblasts; test: MTT toxicity assay; format: cell-based; details: 72 h drug incubation, read-out: IC50 against MRC-5 normal human lung fibroblasts
Procedure: The toxicity of the compounds was measured using an MTT (3-(4,5-dimethylthiazol-2-yl)-2,5-diphenyltetrazolium bromide) (Sigma Aldrich, St Louis, MO, USA) colorimetric assay against normal human lung fibroblasts MRC-5 cells. The cells were cultured in minimal essential medium (MEM; Sigma Aldrich, St Louis, MO, USA) containing 10% foetal bovine serum (FBS). The cells were maintained at 37 °C in 5% CO2 as an adherent monolayer and was passaged upon reaching confluence by standard cell culture techniques. MRC-5 cells were seeded at 5000 cells/well in 96-well plates to ensure full confluence (quiescence) and left overnight to adhere to the plate wells. The adherent cells were treated with 1–500 µM of compounds by dissolving in DMSO and serially diluting with media. The final concentration of DMSO was 0.5% (v/v). After 72 h drug incubation, […] stock MTT solution (5 mg/mL) was added and the cells were incubated for another 3.5–4 h. MTT solution-containing media was carefully aspirated without displacing the purple crystals from the bottom and […] acid-isopropanol was added to all wells and mixed slowly by shaking with an orbital shaker to dissolve the dark blue crystals. The metabolic activity was detected by spectrophotometric analysis by assessing the read absorbance (590/620 nm) on an EnSight plate reader (PerkinElmer, Waltham, MA, USA) and cell viability was expressed as a percentage of untreated control cells. The determination of IC50 values was performed using GraphPad Prism 6 (GraphPad, San Diego, CA, USA). Each experiment was performed in triplicate and was repeated in three independent experiments.

S. aureus (SA38) = test: Minimum inhibitory concentration (MIC) assay against S. aureus; format: cell-based, Staphylococcus aureus
Procedure: (§1) The antimicrobial activity of the compounds was evaluated by MIC assay using the procedure described by Clinical and Laboratory Standards Institute (CLSI). A single colony of bacteria was cultured overnight in trypticase soy broth (TSB; Oxoid, Basingstoke, UK) at 37 °C with shaking. The resulting bacterial culture was collected by centrifugation and resuspended in TSB twice. The optical density (OD) of the resulting culture was adjusted to OD660 = 0.1 in TSB (which is equivalent to 10^8 colony forming unit (CFU)/mL bacteria). It was further diluted to 10^6 CFU/mL in TSB. 100 µL of the bacterial solution was then added to wells of a 96-well plate (Costar; Sigma-Aldrich, St Louis, MO, USA) containing 100 µL serially diluted peptide mimic, with final concentration ranging from 1 to 250 µM. Wells with bacteria but no compound were used as negative control while wells with only media were set as blank. The plates were then wrapped with parafilm to prevent evaporation and incubated with shaking at 120 rpm at 37 °C for 18–24 h, and the data were recorded by measuring the OD value at 660 nm using a FLUOstar Omega (BMG Labtech, Mornington, Victoria, Australia) microplate reader. […] Each experiment was performed in triplicate and was repeated in three independent experiments.

E. coli (K12) = test: Minimum inhibitory concentration (MIC) assay against E. coli; format: cell-based; details: Escherichia coli
Procedure: as §1

P. aeruginosa (PA01) = test: Minimum inhibitory concentration (MIC) assay against P. aeruginosa; format: cell-based; details: Pseudomonas aeruginosa
Procedure: as §1

[2] = tested on: established S. aureus biofilms; test: Biofilm disruption assay (crystal violet staining), S. aureus; format: cell-based, Staphylococcus aureus; details: any tested concentration (1×, 2× and 4× MIC), 24 h treatment
Procedure: Bacterial cultures (S. aureus and E. coli) were grown in Muller Hinton broth (MHB; Oxoid, Basingstoke, UK) media overnight at 37 °C with shaking at 120 rpm. Cultures were diluted (1:20) in MHB medium and 200 µL aliquots were dispensed to wells in a flat bottom 96-well plate (Costar; Sigma-Aldrich, St Louis, MO, USA). Biofilm was then grown in the 96-well plate at 37 °C overnight. After that, loosely bound cells were washed away with 1x phosphate-buffered saline (PBS) and cultures were then supplemented with different concentrations of test compounds dissolved in DMSO and incubated for a further 24 h with shaking at 120 rpm. Biofilms adhered on the plate substratum were quantified using crystal violet staining as described previously. The experiment was performed in triplicate.

Row | SMILES | IC50 ([1]; Homo sapiens, MRC5, 72 h) [µM] | MIC (S. aureus (SA38)) [µM] | MIC (S. aureus (SA38); Staphylococcus aureus) [µM] | also measured
1 | CCCCCCCCS(=O)(=O)Nc1ccc(-c2ccccc2)cc1C(=O)C(=O)NCCCN(C)C [Compound 11a, N-(3-(Dimethylamino)propyl)-2-(4-(octylsulfonamido)-[1,1’-biphenyl]-3-yl)-2-oxoacetamide] | < 30 | 24 (≈ 12 µg/mL) | – | IC50 [1]: 28.2 µM
2 | CCCCCCCCS(=O)(=O)Nc1ccc(-c2ccc(F)cc2)cc1C(=O)C(=O)NCCCN(C)C [Compound 11b, N-(3-(Dimethylamino)propyl)-2-(4’-fluoro-4-(octylsulfonamido)-[1,1’-biphenyl]-3-yl)-2-oxoacetamide] | – | 16 (≈ 8.31 µg/mL) | – | –
3 | CCCCCCCCS(=O)(=O)Nc1ccc(-c2ccc(Cl)cc2)cc1C(=O)C(=O)NCCCN(C)C [Compound 11c, 2-(4’-Chloro-4-(octylsulfonamido)-[1,1’-biphenyl]-3-yl)-N-(3-(dimethylamino)propyl)-2-oxoacetamide] | – | 16 (≈ 8.58 µg/mL) | – | –
4 | CCCCCCCCS(=O)(=O)Nc1ccc(-c2ccc3ccccc3c2)cc1C(=O)C(=O)NCCCN(C)C [Compound 11d, N-(3-(Dimethylamino)propyl)-2-(5-(naphthalen-2-yl)-2-(octylsulfonamido)phenyl)-2-oxoacetamide] | – | 16 (≈ 8.83 µg/mL) | – | –
5 | CCCCCCCCS(=O)(=O)Nc1ccc(CCCC)cc1C(=O)C(=O)NCCCN(C)C [Compound 11e, 2-(5-Butyl-2-(octylsulfonamido)phenyl)-N-(3-(dimethylamino)propyl)-2-oxoacetamide] | – | 63 (≈ 30.3 µg/mL) | – | –
6 | CCCCS(=O)(=O)Nc1ccc(-c2ccccc2)cc1C(=O)C(=O)NCCCN(C)C [Compound 12a, 2-(4-(Butylsulfonamido)-[1,1’-biphenyl]-3-yl)-N-(3-(dimethylamino)propyl)-2-oxoacetamide] | – | – | > 250 | –
7 | CCCCCCCCS(=O)(=O)Nc1ccc(-c2ccccc2)cc1C(=O)C(=O)NCCCN(C)C [Compound 13a, N,N-Dimethyl-3-(2-(4-(octylsulfonamido)-[1,1’-biphenyl]-3-yl)-2-oxoacetamido)propan-1-aminium chloride] | – | – | 16 | IC50 [1]: 25 µM
8 | CCCCCCCCS(=O)(=O)Nc1ccc(-c2ccc(F)cc2)cc1C(=O)C(=O)NCCCN(C)C [Compound 13b, 3-(2-(4’-Fluoro-4-(octylsulfonamido)-[1,1’-biphenyl]-3-yl)-2-oxoacetamido)-N,N-dimethylpropan-1-aminium chloride] | – | – | 16 | –
9 | CCCCCCCCS(=O)(=O)Nc1ccc(-c2ccc(Cl)cc2)cc1C(=O)C(=O)NCCCN(C)C [Compound 13c, 3-(2-(4’-Chloro-4-(octylsulfonamido)-[1,1’-biphenyl]-3-yl)-2-oxoacetamido)-N,N-dimethylpropan-1-aminium chloride] | 25.5 | – | 16 | –
10 | CCCCCCCCS(=O)(=O)Nc1ccc(-c2ccc3ccccc3c2)cc1C(=O)C(=O)NCCCN(C)C [Compound 13d, N,N-Dimethyl-3-(2-(5-(naphthalen-2-yl)-2-(octylsulfonamido)phenyl)-2-oxoacetamido)propan-1-aminium chloride] | – | – | 8 | IC50 [1]: 19.7 µM
11 | CCCCCCCCS(=O)(=O)Nc1ccc(CCCC)cc1C(=O)C(=O)NCCCN(C)C [Compound 13e, 3-(2-(5-Butyl-2-(octylsulfonamido)phenyl)-2-oxoacetamido)-N,N-dimethylpropan-1-aminium chloride] | 23.6 | – | 32 | –
12 | CCCCS(=O)(=O)Nc1ccc(-c2ccccc2)cc1C(=O)C(=O)NCCCN(C)C.Cl [Compound 14a, 3-(2-(4-(Butylsulfonamido)-[1,1’-biphenyl]-3-yl)-2-oxoacetamido)-N,N-dimethylpropan-1-aminium chloride] | – | > 250 | – | –
13 | CCCCCCCCS(=O)(=O)Nc1ccc(-c2ccccc2)cc1C(=O)C(=O)NCCC[N+](C)(C)C [Compound 15a, N,N,N-Trimethyl-3-(2-(4-(octylsulfonamido)-[1,1’-biphenyl]-3-yl)-2-oxoacetamido)propan-1-aminium iodide] | 50.7 | – | 16 | MIC (E. coli (K12)): 32 µM; MIC (P. aeruginosa (PA01)): 125 µM
14 | CCCCCCCCS(=O)(=O)Nc1ccc(-c2ccc(F)cc2)cc1C(=O)C(=O)NCCC[N+](C)(C)C [Compound 15b, 3-(2-(4’-Fluoro-4-(octylsulfonamido)-[1,1’-biphenyl]-3-yl)-2-oxoacetamido)-N,N,N-trimethylpropan-1-aminium iodide] | 190 | – | 16 | MIC (E. coli (K12)): 32 µM; MIC (P. aeruginosa (PA01)): 63 µM
15 | CCCCCCCCS(=O)(=O)Nc1ccc(CCCC)cc1C(=O)C(=O)NCCC[N+](C)(C)C [Compound 15e, 3-(2-(5-Butyl-2-(octylsulfonamido)phenyl)-2-oxoacetamido)-N,N,N-trimethylpropan-1-aminium iodide] | 101 | – | 16 | MIC (E. coli (K12)): > 250 µM; MIC (P. aeruginosa (PA01)): > 250 µM
16 | CCCCS(=O)(=O)Nc1ccc(-c2ccccc2)cc1C(=O)C(=O)NCCC[N+](C)(C)C [Compound 16a, 3-(2-(4-(Butylsulfonamido)-[1,1’-biphenyl]-3-yl)-2-oxoacetamido)-N,N,N-trimethylpropan-1-aminium iodide] | – | – | > 250 | –
17 | CCCCCCCCS(=O)(=O)Nc1ccc(-c2ccc(Cl)cc2)cc1C(=O)C(=O)NCCCNC(=N)N.Cl [Compound 22c, 2-(4’-Chloro-4-(octylsulfonamido)-[1,1’-biphenyl]-3-yl)-N-(3-guanidinopropyl)-2-oxoacetamide hydrochloride] | 95 | – | 8 | MIC (E. coli (K12)): 63 µM; MIC (P. aeruginosa (PA01)): 250 µM; disruption of preformed S. aureus biofilms [2]: failed to disrupt any
18 | CN(C)CCCNC(=O)C(=O)c1cc(-c2ccccc2)ccc1NC(=O)c1ccc2ccccc2c1.Cl [Compound 26, 3-(2-(4-(2-Naphthamido)-[1,1’-biphenyl]-3-yl)-2-oxoacetamido)-N,N-dimethylpropan-1-aminium chloride] | – | > 250 | – | –
19 | C[N+](C)(C)CCCNC(=O)C(=O)c1cc(-c2ccccc2)ccc1NC(=O)c1ccc2ccccc2c1 [Compound 27, 3-(2-(4-(2-Naphthamido)-[1,1’-biphenyl]-3-yl)-2-oxoacetamido)-N,N,N-trimethylpropan-1-aminium iodide] | – | – | 32 | –
